For nine compounds, IC50, GI50 and inhibition results are on record in US8309546B2, “Morpholinopurine derivatives” (Daiichi Sankyo Company, Limited, priority 2008, dated 2012).

Each structure is given as a SMILES string.

One assay deals with PI3Kα (Homo sapiens, UniProt P42336). Nature of the assay: PI3K kinase activity inhibition assay. The format is biochemical. The following applies: Kinase-Glo Plus ATP detection, read-out: IC50 against PI3K. Put shortly:
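PI3Kα (50 nM solution) was reacted with 30 μM ATP and 45 μM PIP2 solutions, each in HEPES pH 7.4 with MgCl2 and DTT, for 2 h at room temperature. Remaining ATP was measured by Kinase-Glo Plus luminescence, and inhibition was derived from ATP consumed. IC50 was taken from curve fitting of the serial dilutions.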

In assay [1] the test system is human ovary cancer cell strain IGROV1. As to the kind of experiment: Cell growth inhibition test (MTT), IGROV1. The format is cell-based. The conditions noted are these: IGROV-1, 72 h, IGROV1, 3 days culture, read-out: concentration exhibiting anti-cell effect (GI50). In short, it runs like this:
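Living cells were counted by MTT reduction (4 h; formazan dissolved in DMSO, A540) after 3-day compound exposure at 37° C, 5% CO2. Seeding was 5000 (AN3CA), 1000 (IGROV1) or 5000 (HT29) cells/well, dosing the following day. Growth rate T/C % used pre-dose baseline; GI50 interpolated at 50%.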

Assay [2] relates to S6 (serine 235 and 236) phosphorylation in AN3CA tumor. Nature of the assay: S6 phosphorylation inhibition assay in xenograft. The format is in vivo, female nude mouse. The conditions noted are these: Mus musculus, AN3-CA, oral, 6 hr after dosing. Put shortly: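 AN3CA human endometrial cancer cells grown as subcutaneous xenografts in female nude mice; compound dosed orally at a set concentration, tumors excised after a set time. Tumor lysates at equal protein were western blotted for p-Akt(T308) and p-S6(S235/236). Inhibition (%) = 100−100×(treated/untreated phospho signal).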

Sequence of PI3Kα (P42336 whole entry, species assumed): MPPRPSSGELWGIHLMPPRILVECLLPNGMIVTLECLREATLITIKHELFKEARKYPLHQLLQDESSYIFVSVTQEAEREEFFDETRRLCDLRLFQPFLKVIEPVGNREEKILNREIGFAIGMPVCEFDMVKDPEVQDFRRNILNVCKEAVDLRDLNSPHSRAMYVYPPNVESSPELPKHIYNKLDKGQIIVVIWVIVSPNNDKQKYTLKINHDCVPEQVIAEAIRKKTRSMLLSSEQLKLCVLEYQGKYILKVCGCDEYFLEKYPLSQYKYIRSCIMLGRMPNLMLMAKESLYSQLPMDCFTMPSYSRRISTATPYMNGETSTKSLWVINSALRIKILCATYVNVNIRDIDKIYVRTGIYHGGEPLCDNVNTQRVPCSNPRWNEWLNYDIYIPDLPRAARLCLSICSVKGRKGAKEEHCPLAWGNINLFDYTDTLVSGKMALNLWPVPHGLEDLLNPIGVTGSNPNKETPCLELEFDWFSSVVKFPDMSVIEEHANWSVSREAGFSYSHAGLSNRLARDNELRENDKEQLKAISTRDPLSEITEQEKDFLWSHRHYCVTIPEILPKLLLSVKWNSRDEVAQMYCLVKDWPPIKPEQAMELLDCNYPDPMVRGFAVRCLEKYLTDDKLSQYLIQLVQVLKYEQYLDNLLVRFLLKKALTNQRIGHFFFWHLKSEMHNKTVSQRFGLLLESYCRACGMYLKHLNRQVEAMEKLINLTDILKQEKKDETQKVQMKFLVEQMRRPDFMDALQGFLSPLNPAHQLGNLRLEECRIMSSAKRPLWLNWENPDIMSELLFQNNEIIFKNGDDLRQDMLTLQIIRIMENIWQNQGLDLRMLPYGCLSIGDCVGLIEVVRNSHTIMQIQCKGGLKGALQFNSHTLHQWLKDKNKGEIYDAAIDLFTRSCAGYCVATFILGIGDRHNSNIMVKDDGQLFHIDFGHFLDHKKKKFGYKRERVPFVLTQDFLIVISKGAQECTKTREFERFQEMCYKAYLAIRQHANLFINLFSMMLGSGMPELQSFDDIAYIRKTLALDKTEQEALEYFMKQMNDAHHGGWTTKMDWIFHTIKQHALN
Sequence of PI3Kα (P27986 whole entry partner, species assumed): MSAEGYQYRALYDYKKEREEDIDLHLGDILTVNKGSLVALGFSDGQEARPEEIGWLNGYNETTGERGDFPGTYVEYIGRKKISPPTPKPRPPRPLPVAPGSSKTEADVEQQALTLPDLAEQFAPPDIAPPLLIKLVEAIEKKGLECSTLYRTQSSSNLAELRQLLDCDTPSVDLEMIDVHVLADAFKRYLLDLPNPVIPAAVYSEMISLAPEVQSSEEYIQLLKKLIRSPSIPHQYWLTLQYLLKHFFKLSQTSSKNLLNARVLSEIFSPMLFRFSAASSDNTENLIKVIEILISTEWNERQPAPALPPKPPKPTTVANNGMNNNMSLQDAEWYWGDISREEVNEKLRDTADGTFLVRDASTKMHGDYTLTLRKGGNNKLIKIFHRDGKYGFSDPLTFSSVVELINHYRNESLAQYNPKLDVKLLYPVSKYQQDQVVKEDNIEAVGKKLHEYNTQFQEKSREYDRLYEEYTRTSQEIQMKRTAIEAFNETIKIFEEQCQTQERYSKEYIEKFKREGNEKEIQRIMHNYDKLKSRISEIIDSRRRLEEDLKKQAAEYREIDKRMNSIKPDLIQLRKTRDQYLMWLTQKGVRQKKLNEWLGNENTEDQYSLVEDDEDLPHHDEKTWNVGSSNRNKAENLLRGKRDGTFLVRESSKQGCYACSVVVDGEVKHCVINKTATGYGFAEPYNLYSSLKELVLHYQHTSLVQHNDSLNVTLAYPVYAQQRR

Turning to `CC(=O)N1[C@H](C)CN(c2nc3c(N4CCOCC4)nc(-c4cnc(N)nc4)nc3n2CC(F)(F)F)C[C@@H]1C` [Example 115, 5-[8-(4-Acetyl-cis-3,5-dimethylpiperazin-1-yl)-6-morpholin-4-yl-9-(2,2,2-trifluoroethyl)-9H-purin-2-yl]pyrimidin-2-amine], the IC50 (in general, the concentration that inhibits the measured activity by half) at PI3Kα is less than 10 nM. Further, the GI50 in assay [1] was no more than 5000 nM. In addition, the inhibition (in general, the share of the control response that was lost under treatment) at 10 mg/kg in assay [2] was greater than 90%.
The matching figures for `C[C@@H]1CN(c2nc3c(N4CCOCC4)nc(-c4cnc(N)nc4)nc3n2CC(F)(F)F)C[C@H](C)N1C=O` [Example 116, 4-[2-(2-Aminopyrimidin-5-yl)-6-morpholin-4-yl-9-(2,2,2-trifluoroethyl)-9H-purin-8-yl]-cis-2,6-dimethylpiperazine-1-carboaldehyde]: less than 10 nM, no more than 5000 nM and greater than 90%.
On the same counts, the results for `CCC(=O)N1CCN(c2nc3c(N4CCOCC4)nc(-c4cnc(N)nc4)nc3n2CC(F)(F)F)CC1` [Example 117, 5-[6-Morpholin-4-yl-8-(4-propionylpiperazin-1-yl)-9-(2,2,2-trifluoroethyl)-9H-purin-2-yl]pyrimidin-2-amine] are less than 10 nM, no more than 5000 nM and 70 to 90%.
The matching figures for `CC(=O)N1CCN(c2nc3c(N4CCOCC4)nc(-c4cnc(N)nc4)nc3n2CC(F)(F)F)CC12CC2` [Example 119, 5-[8-(4-Acetyl-4,7-diazaspiro[2.5]oct-7-yl)-6-morpholin-4-yl-9-(2,2,2-trifluoroethyl)-9H-purin-2-yl]pyrimidin-2-amine]: less than 10 nM, no more than 5000 nM and greater than 90%.
Consider `CC(=O)N1CCN(c2nc3c(N4CCOC[C@@H]4C)nc(-c4cnc(N)nc4)nc3n2CC(C)C)CC1` [Example 129, 5-{8-(4-Acetylpiperazin-1-yl)-9-isobutyl-6-[(3S)-3-methylmorpholin-4-yl]-9H-purin-2-yl}pyrimidin-2-amine], for which, on PI3Kα, the IC50 lay in the range of 10 to 20 nM. Moreover, the GI50 in assay [1] was no more than 5000 nM. For the same compound, the inhibition at 10 mg/kg in assay [2] lay within 70 to 90%.
The matching figures for `CC(C)Cn1c(N2CCN(C(=O)CO)CC2)nc2c(N3CCOC[C@@H]3C)nc(-c3cnc(N)nc3)nc21` [Example 130, 2-(4-{2-(2-Aminopyrimidin-5-yl)-9-isobutyl-6-[(3S)-3-methylmorpholin-4-yl]-9H-purin-8-yl}piperazin-1-yl)-2-oxoethanol]: 10 to 20 nM, no more than 5000 nM and greater than 90%.
On the same counts, the results for `CC(C)Cn1c(N2CCN(C(=O)[C@H](C)O)CC2)nc2c(N3CCOC[C@@H]3C)nc(-c3cnc(N)nc3)nc21` [Example 131, (2S)-1-(4-{2-(2-Aminopyrimidin-5-yl)-9-isobutyl-6-[(3S)-3-methylmorpholin-4-yl]-9H-purin-8-yl}piperazin-1-yl)-1-oxopropan-2-ol] are 10 to 20 nM, no more than 5000 nM and greater than 90%.
On the same counts, the results for `CC(C)Cn1c(N2CCN(C=O)CC2)nc2c(N3CCOC[C@@H]3C)nc(-c3cnc(N)nc3)nc21` [Example 132, 4-{2-(2-Aminopyrimidin-5-yl)-9-isobutyl-6-[(3S)-3-methylmorpholin-4-yl]-9H-purin-8-yl}piperazine-1-carboaldehyde] are less than 10 nM, no more than 5000 nM and greater than 90%.
In the case of `CNc1ncc(-c2nc(N3CCOCC3)c3nc(N4CCN(C(C)=O)CC4)n(CC(F)(F)F)c3n2)cn1` [Example 134, 5-[8-(4-Acetylpiperazin-1-yl)-6-morpholin-4-yl-9-(2,2,2-trifluoroethyl)-9H-purin-2-yl]-N-methylpyrimidin-2-amine], the IC50 at PI3Kα is less than 10 nM. For the same compound, the GI50 in assay [1] was no more than 5000 nM. For the same compound, in assay [2], the inhibition at 10 mg/kg is greater than 90%.
